US10946383B2, “Oligonucleotide encoded chemical libraries” (Plexium, Inc., priority 2017, dated 2021)

Target: Cathepsin-D protease (Homo sapiens, UniProt P07339)
Assay: Cathepsin-D protease inhibition assay in picowells with bead-released compound and Peptide Q-Fluor substrate
Assay type: biochemical
Details: compound released from 10 μm TentaGel beads by UV (365 nm, 77 J/cm^2) to approximately 13 μM; 30 min, 37° C.

Chain of Cathepsin-D protease (P07339 65-412): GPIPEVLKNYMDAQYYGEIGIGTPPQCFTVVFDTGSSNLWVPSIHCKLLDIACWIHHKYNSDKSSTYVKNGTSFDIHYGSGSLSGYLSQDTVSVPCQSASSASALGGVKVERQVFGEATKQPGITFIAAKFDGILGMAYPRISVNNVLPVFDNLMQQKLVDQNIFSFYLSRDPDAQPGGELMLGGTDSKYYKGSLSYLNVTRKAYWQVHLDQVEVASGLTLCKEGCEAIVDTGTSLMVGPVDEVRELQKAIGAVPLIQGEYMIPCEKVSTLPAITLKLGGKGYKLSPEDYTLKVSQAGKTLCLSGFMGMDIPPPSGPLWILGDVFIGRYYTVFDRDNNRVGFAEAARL

Cathepsin-D inhibition (fluorescence of cleaved Peptide Q-Fluor substrate): no Cathepsin-D inhibition
Structure (SMILES): CC(C)[C@H](NC(=O)OCC1c2ccccc2-c2ccccc21)C(=O)O [negative control beads, Fmoc-Valine]
